# From ChEMBL document CHEMBL3885861, “Open TG-GATES”
# Species on record: Rattus norvegicus
# Assay: Open TG-GATES - Regimen: Single
# Type: toxicity, organism-based, Sprague-Dawley
# Set-up: regimen Single, gender Male, age 6 weeks
# Details: in vivo, po, 4000 mg/kg, route gavage, dose level High; for APTT / Bas / Eos / Fbg / Hb / Ht / Lym / MCH / MCHC / MCV / Mono / Neu / PT / Plat / RBC / Ret / WBC: tissue Blood; for KIDNEY_L / KIDNEY_R / KIDNEY_TOTAL: tissue Kidney; for LIVER: tissue Liver; for A/G / ALP / ALT / AST / BUN / CRE / Ca / Cl / DBIL / GLC / IP / K / LDH / Na / PL / RALB / TBIL / TC / TG / TP / gamma-GTP: tissue Plasma
compound,measurement,setting,value
CCO [ALCOHOL],TERMINAL_BW,9 h,200.3 g
same,APTT,9 h,17.6 s
same,Bas,9 h,0%
same,Eos,9 h,1%
same,Fbg,9 h,205.2 mg/dL
same,Hb,9 h,13.5 g/dL
same,Ht,9 h,40.5%
same,Lym,9 h,76.4%
same,MCH,9 h,21.8 pg
same,MCHC,9 h,33.4%
same,MCV,9 h,65.3 fL
same,Mono,9 h,7%
same,Neu,9 h,15.6%
same,PT,9 h,12 s
same,Plat,9 h,107.8 x10_4/uL
same,RBC,9 h,621.6 x10_4/ul
same,Ret,9 h,9.9%
same,WBC,9 h,72.9 x10_2/uL
same,KIDNEY_L,9 h,0.9 g
same,KIDNEY_R,9 h,1 g
same,KIDNEY_TOTAL,9 h,1.9 g
same,LIVER,9 h,8.2 g
same,A/G,9 h,2.7
same,ALP,9 h,857.6 IU/L
same,ALT,9 h,30.6 IU/L
same,AST,9 h,65.8 IU/L
same,BUN,9 h,12.8 mg/dL
same,CRE,9 h,0.4 mg/dL
same,Ca,9 h,10.8 mg/dL
same,Cl,9 h,105.6 meq/L
same,DBIL,9 h,0.04 mg/dL
same,GLC,9 h,190.8 mg/dL
same,IP,9 h,10 mg/dL
same,K,9 h,5 meq/L
same,LDH,9 h,96.4 IU/L
same,Na,9 h,137 meq/L
same,PL,9 h,154 mg/dL
same,RALB,9 h,4.1 g/dL
same,TBIL,9 h,0.4 mg/dL
same,TC,9 h,79.8 mg/dL
same,TG,9 h,49 mg/dL
same,TP,9 h,5.6 g/dL
same,gamma-GTP,9 h,1.4 IU/L
same,TERMINAL_BW,24 h,210.8 g
same,APTT,24 h,16.5 s
same,Bas,24 h,0%
same,Eos,24 h,2%
same,Fbg,24 h,202 mg/dL
same,Hb,24 h,13.8 g/dL
same,Ht,24 h,40.7%
same,Lym,24 h,70.4%
same,MCH,24 h,21.5 pg
same,MCHC,24 h,33.8%
same,MCV,24 h,63.5 fL
same,Mono,24 h,11.4%
same,Neu,24 h,16.4%
same,PT,24 h,11.8 s
same,Plat,24 h,115.4 x10_4/uL
same,RBC,24 h,640.6 x10_4/ul
same,Ret,24 h,10.2%
same,WBC,24 h,84.1 x10_2/uL
same,KIDNEY_L,24 h,0.9 g
same,KIDNEY_R,24 h,1 g
same,KIDNEY_TOTAL,24 h,1.9 g
same,LIVER,24 h,9.5 g
same,A/G,24 h,2.6
same,ALP,24 h,971 IU/L
same,ALT,24 h,41.8 IU/L
same,AST,24 h,68.2 IU/L
same,BUN,24 h,17.6 mg/dL
same,CRE,24 h,0.5 mg/dL
same,Ca,24 h,10.9 mg/dL
same,Cl,24 h,103.4 meq/L
same,DBIL,24 h,0.014 mg/dL
same,GLC,24 h,200.4 mg/dL
same,IP,24 h,8.5 mg/dL
same,K,24 h,4.9 meq/L
same,LDH,24 h,102.6 IU/L
same,Na,24 h,138 meq/L
same,PL,24 h,155 mg/dL
same,RALB,24 h,4 g/dL
same,TBIL,24 h,0.3 mg/dL
same,TC,24 h,80.8 mg/dL
same,TG,24 h,109.8 mg/dL
same,TP,24 h,5.5 g/dL
same,gamma-GTP,24 h,1.2 IU/L
